Results from US7087385B2, “Promoter sequences for urocortin II and the use thereof” (Wisconsin Alumni Research Foundation, priority 2002, dated 2006).
Where no end group is shown, it is not given here.

How the values were obtained:
human UCN II promoter [1] = experiment: Dexamethasone induced expression from UCN II promoter fragments in CATH.a cultures; type: cell-based, mouse; conditions: 20 μM dexamethasone, 22 h
From the text: (§1) The above constructs containing the human UCN II promoter fragments placed upstream of the firefly luciferase gene can be used to transfect immortalized cell lines. The constructs can be transfected into CHO-K1 cell lines using Lipofectamine 2000 (Invitrogen Life Technologies). Primary cultures of the central nervous system, as well as additional immortalized cell lines, are also appropriate for these transfections. To control for transfection efficiency, the cells can also be co-transfected with the pRL-TK vector (Promega). The pRL-TK vector contains the Renilla luciferase gene downstream of the herpes simplex virus thymidine kinase promoter, a promoter which provides low to moderate levels of expression. Cell lysates can be assayed for total protein using the BCA assay (Pierce, Rockford, Ill.) to standardize for the protein extraction. The level of reporter gene expression from a standardized amount of cell extract can be quantified by measuring luciferase activity using a luminometer (EG&G Wallac, Gaithersburg, Md.) and the dual-luciferase reporter assay system (Promega). Firefly luciferase activity reflects UCN II promoter activity and Renilla luciferase activity can be used to normalize data between experiments.
In the following experiments, we confirmed the dexamethasone treatment results in the CATH.a cell line. Using the methods described previously, CATH.a cultures were transiently transfected with the UCN II promoter constructs. Immediately following transfection equal numbers of cultures (N=12 per group) were treated with either 20 μM dexamethasone or were given vehicle. Twenty-two hours following treatment, the cultures were harvested and assayed for luciferase activity (see FIG. 7).

human UCN II promoter [2] = experiment: Dexamethasone induced expression from UCN II promoter fragments in CHO-K1 cultures; type: cell-based, hamster; conditions: 20 μM dexamethasone, 22 h
From the text: as §1
Using the methods described previously, CHO-K1 cultures were transiently transfected with the UCN II promoter constructs. […]

human UCN II promoter [3] = experiment: CRF induced expression from UCN II promoter fragments in CATH.a cultures; type: cell-based; conditions: 1 μM CRF, 22 h
From the text: as §1
Using the methods described previously, CATH.a cultures were transiently transfected with the UCN II promoter constructs. Immediately following transfection equal numbers of cultures (N=4 per group) were treated with either 1 μM CRF or with vehicle. Twenty-two hours following treatment, the cultures were harvested and assayed for luciferase activity (see FIG. 8). CATH.a cultures are known to express CRF receptors and both CRF and UCN II are known ligands for the receptors. […] The goal of the present experiment was to determine if CRF receptor-dependent second messenger system activation affected UCN II gene expression.

Compound	decrease in expression compared to vehicle, −1426 construct (human UCN II promoter [1]) [%]	decrease in expression compared to vehicle, −1987 construct (human UCN II promoter [1]) [%]	expression within the remaining constructs vs vehicle (human UCN II promoter [1])	decrease in expression compared to vehicle, −1426 construct (human UCN II promoter [2]) [%]	expression within the remaining constructs vs vehicle (human UCN II promoter [2])	expression within the remaining constructs vs vehicle (human UCN II promoter [3])	increase in expression over vehicle, −1426 construct (human UCN II promoter [3]) [%]	increase in expression over vehicle, −1987 construct (human UCN II promoter [3]) [%]	expression within the −1987 and −1426 constructs vs vehicle (human UCN II promoter [3]; P<0.05 for −1987, P<0.001 for −1426, preliminary data)
C[C@@H]1C[C@H]2[C@@H]3CCC4=CC(=O)C=C[C@]4(C)[C@@]3(F)[C@@H](O)C[C@]2(C)[C@@]1(O)C(=O)CO [dexamethasone]	39	29	no effect	15	no significant effect				
corticotropin-releasing factor (SEEPPISLDLTFHLLREVLEMARAEQLAQQAHSNRKLMEII; ends and bridges not checked; UniProt P06850 154-194, looked up) [CRF, neurotransmitter peptide, ligand of CRF receptors]						no significant effect	52	29	significantly increased expression
